Data: PubChem BioAssay AID256 (DTP/NCI, 2004)
“And” between values parts separate entries of the source, which are not always exact repeats. Equal values may be shown once. Inconclusive results and toxic doses are left out. Rule for the calls: active = survival T/C of 150% or more; inactive = T/C below 125% in these data.

System: CD2F1 mice, L1210 leukemia ip, survival T/C
Test: NCI In Vivo Anticancer Drug Screen. Data for tumor model L1210 Leukemia (intraperitoneal) in CD2F1 (CDF1) mice
Conditions: endpoint: mean survival time, higher = longer survival
How it was run: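 Mice carrying a transplanted tumor received test compound or vehicle alone. The value is the measurement in the treated group divided by that in the vehicle-treated control group.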

[1] = dose: 75.0 mg/kg/injection, schedule: Q01DX001 (ip), vehicle: saline
[2] = dose: 150.0 mg/kg/injection, schedule: Q01DX001 (ip), vehicle: saline
[3] = dose: 100.0 mg/kg/injection, schedule: Q01DX001 (ip), vehicle: saline with Tween-80
[4] = dose: 400.0 mg/kg/injection, schedule: Q01DX001 (ip), vehicle: saline with Tween-80
[5] = dose: 100.0 mg/kg/injection, schedule: Q04DX003 (ip), vehicle: saline with Tween-80
[6] = dose: 200.0 mg/kg/injection, schedule: Q04DX003 (ip), vehicle: saline with Tween-80
[7] = dose: 400.0 mg/kg/injection, schedule: Q04DX003 (ip), vehicle: saline with Tween-80
[8] = dose: 100.0 mg/kg/injection, schedule: Q04DX002 (ip), vehicle: saline with Tween-80
[9] = dose: 200.0 mg/kg/injection, schedule: Q04DX002 (ip), vehicle: saline with Tween-80
[10] = dose: 400.0 mg/kg/injection, schedule: Q04DX002 (ip), vehicle: saline with Tween-80
[11] = dose: 200.0 mg/kg/injection, schedule: Q01DX001 (ip), vehicle: saline with Tween-80
[12] = dose: 100.0 mg/kg/injection, schedule: Q04DX003 (ip), vehicle: saline
[13] = dose: 200.0 mg/kg/injection, schedule: Q04DX003 (ip), vehicle: saline
[14] = dose: 400.0 mg/kg/injection, schedule: Q04DX003 (ip), vehicle: saline
[15] = dose: 100.0 mg/kg/injection, schedule: Q01DX009 (ip), vehicle: Klucel (hydroxypropylcellulose) (HPC)
[16] = dose: 200.0 mg/kg/injection, schedule: Q01DX009 (ip), vehicle: Klucel (hydroxypropylcellulose) (HPC)
[17] = dose: 100.0 mg/kg/injection, schedule: Q04DX002 (ip), vehicle: saline
[18] = dose: 200.0 mg/kg/injection, schedule: Q04DX002 (ip), vehicle: saline
[19] = dose: 400.0 mg/kg/injection, schedule: Q04DX002 (ip), vehicle: saline
[20] = dose: 100.0 mg/kg/injection, schedule: Q01DX009 (ip), vehicle: saline with Tween-80

Measured: T/C

CN1Cc2c([nH]c3ccccc23)C(O)C1 (stereo not given)
inactive: [1] 98 % of control | [2] 106 % of control

Nc1nc(-c2cccc([N+](=O)[O-])c2)c(N=Nc2ccccc2Cl)s1
inactive: [3] 89 % of control | [4] 96 % of control

Cc1ccc([N+](=O)[O-])cc1NC(=O)COc1cc(Cl)c(Cl)cc1Cl
inactive: [5] 110 % of control | [6] 90 % of control | [7] 90 % of control

CC1CCC(N=C2OCCN2N=O)CC1 (stereo not given)
inactive: dose: 3.12 mg/kg/injection, schedule: Q01DX001 (ip), vehicle: water 97 % of control | dose: 6.25 mg/kg/injection, schedule: Q01DX001 (ip), vehicle: water 96 % of control | dose: 12.5 mg/kg/injection, schedule: Q01DX001 (ip), vehicle: water 98 % of control | dose: 25.0 mg/kg/injection, schedule: Q01DX001 (ip), vehicle: water 94 % of control | dose: 50.0 mg/kg/injection, schedule: Q01DX001 (ip), vehicle: water 94 % of control | dose: 100.0 mg/kg/injection, schedule: Q01DX001 (ip), vehicle: water 108 % of control

COC(=O)C1=C(O)C(C(=O)OC)C2/C(=[N+](/[O-])O)c3c(cc([N+](=O)[O-])cc3[N+](=O)[O-])C1C2[N+](=O)[O-] (stereo not given)
inactive: [8] 94 % of control | [9] 105 % of control | [10] 90 % of control

O=C1[O][Hg][c]2cccc3cccc1c23
inactive: dose: 2.5 mg/kg/injection, schedule: Q01DX009 (ip), vehicle: saline with Tween-80 88 % of control | dose: 5.0 mg/kg/injection, schedule: Q01DX009 (ip), vehicle: saline with Tween-80 94 % of control | dose: 10.0 mg/kg/injection, schedule: Q01DX009 (ip), vehicle: saline with Tween-80 95 % of control

FC(F)Cc1ccccc1
inactive: [3] 100 % of control | [11] 94 % of control | [4] 100 % of control

[S-]c1n[n+](-c2ccccc2)c(-c2ccccc2)s1
inactive: dose: 75.0 mg/kg/injection, schedule: Q01DX001 (ip), vehicle: saline with Tween-80 95 % of control | dose: 150.0 mg/kg/injection, schedule: Q01DX001 (ip), vehicle: saline with Tween-80 96 % of control | dose: 300.0 mg/kg/injection, schedule: Q01DX001 (ip), vehicle: saline with Tween-80 102 % of control

O=[N+]([O-])c1ccc(S(=O)(=O)Cl)c(Cl)c1
inactive: dose: 18.8 mg/kg/injection, schedule: Q01DX009 (ip), vehicle: saline with Tween-80 91 % of control | dose: 37.5 mg/kg/injection, schedule: Q01DX009 (ip), vehicle: saline with Tween-80 100 % of control | dose: 75.0 mg/kg/injection, schedule: Q01DX009 (ip), vehicle: saline with Tween-80 95 % of control | [12] 98 % of control | [13] 89 % of control | [14] 86 % of control

O=C(O)CCCC1CCc2ccccc2C1 (stereo not given)
inactive: [15] 96 % of control | [16] 102 % of control | dose: 400.0 mg/kg/injection, schedule: Q01DX009 (ip), vehicle: Klucel (hydroxypropylcellulose) (HPC) 97 % of control

Cc1ccc(N)c(Br)c1
inactive: dose: 25.0 mg/kg/injection, schedule: Q04DX003 (ip), vehicle: saline 111 % of control | dose: 50.0 mg/kg/injection, schedule: Q04DX003 (ip), vehicle: saline 100 % of control | [5] 92 % of control | [12] 98 % of control and 100 % of control | [6] 98 % of control

COc1ccc2c(oc(=O)c3c(Cl)nc(C)c(C)c32)c1OC
inactive: dose: 25.0 mg/kg/injection, schedule: Q01DX009 (ip), vehicle: Klucel (hydroxypropylcellulose) (HPC) 102 % of control | dose: 50.0 mg/kg/injection, schedule: Q01DX009 (ip), vehicle: Klucel (hydroxypropylcellulose) (HPC) 95 % of control | [15] 93 % of control | [16] 93 % of control

O=[N+]([O-])c1ccc2c(ccn2C2OCC(O)C(O)C2O)c1 (stereo not given)
inactive: dose: 450.0 mg/kg/injection, schedule: Q01DX009 (ip), vehicle: saline with Tween-80 101 % of control

CC1=C(NNS(=O)(=O)c2ccc(C)cc2)CCCC1=O
inactive: dose: 25.0 mg/kg/injection, schedule: Q04DX002 (ip), vehicle: saline with Tween-80 94 % of control | dose: 50.0 mg/kg/injection, schedule: Q04DX002 (ip), vehicle: saline with Tween-80 97 % of control | [8] 91 % of control and 96 % of control

[Co].[NH-]CC[NH-].[NH-]CC[NH-].[NH-]CC[S-]
inactive: [17] 112 % of control | [18] 101 % of control | [19] 104 % of control

CC(=O)[C@@]12O[C@@H]1C[C@H]1[C@@H]3CCC4=CC(=O)CC[C@]4(C)[C@H]3CC[C@@]12C
inactive: [8] 96 % of control | [9] 101 % of control | [10] 96 % of control

CN1CC(=O)n2c(cc3ccccc32)C1=O
inactive: dose: 50.0 mg/kg/injection, schedule: Q04DX002 (ip), vehicle: saline 101 % of control | [17] 86 % of control | [18] 93 % of control | [19] 101 % of control

CN=NNc1ccc(C(=O)NC(C)C)cc1
inactive: dose: 25.0 mg/kg/injection, schedule: Q01DX009 (ip), vehicle: DMSO 112 % of control | dose: 25.0 mg/kg/injection, schedule: Q01DX009 (ip), vehicle: other 110 % of control | dose: 50.0 mg/kg/injection, schedule: Q01DX009 (ip), vehicle: DMSO 114 % of control | dose: 50.0 mg/kg/injection, schedule: Q01DX009 (ip), vehicle: other 102 % of control and 109 % of control | dose: 100.0 mg/kg/injection, schedule: Q01DX009 (ip), vehicle: other 107 % of control | dose: 200.0 mg/kg/injection, schedule: Q01DX009 (ip), vehicle: DMSO 86 % of control

CCCCC=C(C1CCCC1C)C1CCCC1C (stereo not given)
inactive: [3] 97 % of control | [11] 102 % of control | [4] 94 % of control

CC(O)CNC1CCCCC1 (stereo not given)
inactive: dose: 25.0 mg/kg/injection, schedule: Q01DX009 (ip), vehicle: saline with Tween-80 97 % of control | dose: 50.0 mg/kg/injection, schedule: Q01DX009 (ip), vehicle: saline with Tween-80 97 % of control | [20] 97 % of control

N#Cc1ccc(NCCO)cc1
inactive: [5] 89 % of control | [6] 101 % of control | [7] 91 % of control

CCOC(=O)CC(=O)N(CC)CC
inactive: dose: 100.0 mg/kg/injection, schedule: Q01DX009 (ip), vehicle: saline 98 % of control | [12] 99 % of control | dose: 200.0 mg/kg/injection, schedule: Q01DX009 (ip), vehicle: saline 93 % of control | [13] 95 % of control | dose: 400.0 mg/kg/injection, schedule: Q01DX009 (ip), vehicle: saline 96 % of control | [14] 108 % of control

Cn1cccc1-c1cccnc1
inactive: [1] 97 % of control | [2] 100 % of control

COc1ccc(OC)c(CCc2cc(OC)ccc2OC)c1
inactive: dose: 12.5 mg/kg/injection, schedule: Q04DX003 (ip), vehicle: other 97 % of control | dose: 25.0 mg/kg/injection, schedule: Q04DX003 (ip), vehicle: other 86 % of control | dose: 50.0 mg/kg/injection, schedule: Q04DX003 (ip), vehicle: other 97 % of control

FC(F)(F)C(Cl)(c1ccc(Cl)cc1)c1ccc(Cl)cc1
inactive: dose: 50.0 mg/kg/injection, schedule: Q04DX003 (sc), vehicle: olive oil, sesame oil, peanut oil 101 % of control | dose: 100.0 mg/kg/injection, schedule: Q04DX003 (sc), vehicle: olive oil, sesame oil, peanut oil 108 % of control | dose: 200.0 mg/kg/injection, schedule: Q04DX003 (sc), vehicle: olive oil, sesame oil, peanut oil 97 % of control | dose: 400.0 mg/kg/injection, schedule: Q04DX003 (sc), vehicle: olive oil, sesame oil, peanut oil 101 % of control

O=C(NC(CO)C(=O)OCc1ccccc1)OCc1ccccc1 (stereo not given)
inactive: [20] 107 % of control | dose: 200.0 mg/kg/injection, schedule: Q01DX009 (ip), vehicle: saline with Tween-80 96 % of control | dose: 400.0 mg/kg/injection, schedule: Q01DX009 (ip), vehicle: saline with Tween-80 91 % of control
